“And” between values parts separate entries of the source, which are not always exact repeats. Identical values can stand only once.
Columns and labels:
[1] = test system: Enterococcus faecalis; experiment: MIC (broth-dilution microtiter) and FIC/isobologram (microtiter checkerboard) of EDTA-Tris and antibiotics; format: cell-based; details: Ent. faecalis
Method: (§1) Agents and Chem. 210-217. (1967) and Sparks et al., Vet. Res. Comm. 18, 241-249 (1994), incorporated herein by reference in their entireties.
(§2) Then 0.05 ml of an 18-hour old culture of a test organism, containing 10^6 colony-forming units (CFU)/ml, was added to each well. Controls for the culture and media were included in each plate. Plates were covered and incubated at 37° Celsius for 18-24 hours.
(§3) To generate isobolograms, FICs of the two test solutions were plotted individually on the x-axis and y-axis to determine the effect of combining the two test solutions on bacterial growth. A line that curves away from the zero point and the coordinates indicates antagonism.
(§4) A numerical score or fractional inhibitory concentration (FIC) index was determined. The FIC index is equal to the sum of the values of FIC for the individual drugs: [formula]
(§5) An FIC index greater than 1.0 indicates an antagonistic interaction, an FIC index of 1.0 indicates addition, and an FIC index of less than or equal to 0.5 indicates synergism between the two test agents.
(§6) The organisms of this study were isolated from human burn patients. They included strains of methicillin resistant Staphylococcus aureus, and vancomycin resistant strains of Pseudomonas aeruginosa and Enterococcus faecalis. The bacterial isolates were propagated in or on Brain Heart Infusion broth (BHI), Mueller-Hinton Broth (MHB), blood agar (BA), Mueller-Hinton agar (MHA), enterococcus agar (EA), or 2× nutrient agar (2×NA).

[2] = test system: Pseudomonas aeruginosa; experiment: as above; format: cell-based; details: Ps. aeruginosa
Method: as §1, §2, §3, §4, §5, §6

[3] = test system: Staphylococcus aureus; experiment: as above; format: cell-based; details: Staph. aureus
Method: as §1, §2, §3, §4, §5, §6

[4] = test system: Enterococcus faecalis; experiment: Antibiotic resistance profile by disc diffusion on MHA; format: cell-based; details: human burn isolate; note: key: R = resistant; I = intermediate; S = sensitive
Method: as §6
(§7) Antibiotic resistance profiles were determined by the disc diffusion method on MHA (5).

[5] = test system: Pseudomonas aeruginosa; experiment: as above; format: cell-based; details: human burn isolate
Method: as §6, §7

[6] = test system: Staphylococcus aureus; experiment: as above; format: cell-based; details: human burn isolate
Method: as §6, §7

[7] = test system: E. coli; experiment: MIC and MBC of cleanser formulation and components; format: cell-based, Escherichia coli; details: cocamidopropyl betaine alone
Method: (§8) The solution containing 10% cocamidopropyl betaine was selected for further testing. The formulation was tested against Pseudomonas aeruginosa, Proteus mirabilis, […] coli, Staphylococcus intermedius, Malassezia pachydermatis, and Candida albicans.

[8] = test system: Candida albicans; experiment: MIC and MBC of cleanser formulation and components; format: cell-based; details: C. albicans; cocamidopropyl betaine alone
Method: as §8

[9] = test system: Malassezia pachydermatis; experiment: MIC and MBC of cleanser formulation and components; format: cell-based; details: M. pachydermatis; cocamidopropyl betaine alone
Method: as §8

[10] = test system: Proteus mirabilis; experiment: MIC and MBC of cleanser formulation and components; format: cell-based; details: P. mirabilis; cocamidopropyl betaine alone
Method: as §8

[11] = test system: Pseudomonas aeruginosa; experiment: MIC and MBC of cleanser formulation and components; format: cell-based; details: P. aeruginosa; cocamidopropyl betaine alone
Method: as §8

[12] = test system: Staphylococcus intermedius; experiment: MIC and MBC of cleanser formulation and components; format: cell-based; details: S. intermedius; cocamidopropyl betaine alone
Method: as §8

[13] = test system: Enterococcus faecalis; experiment: Minimal Bactericidal Concentration (MBC) of EDTA and neomycin in 50 mM Tris; format: cell-based
Excerpt: as §6

[14] = test system: Pseudomonas aeruginosa; experiment: as above; format: cell-based; details: Ps. aeruginosa
Excerpt: as §6

[15] = test system: Staphylococcus aureus; experiment: as above; format: cell-based; details: Staph. aureus
Excerpt: as §6
Throughout, for Antibiotic resistance profile: key: R = resistant; I = intermediate; S = sensitive.

Q: What does the source list for `O=C(O)CN(CCN(CC(=O)O)CC(=O)O)CC(=O)O` [EDTA, ethylenediamenetetracetic acid]?
A: MIC, EDTA Individually Administered ([1]; EDTA in 50 mM Tris alone): 15.63 mM; MIC, EDTA Individually Administered ([2]; EDTA in 50 mM Tris alone): 1.25 mM; MIC, EDTA Individually Administered ([3]; EDTA in 50 mM Tris alone): 1.0 mM

Q: For `CN[C@H](CC(C)C)C(=O)N[C@H]1C(=O)N[C@@H](CC(N)=O)C(=O)N[C@H]2C(=O)N[C@H]3C(=O)N[C@H](C(=O)N[C@H](C(=O)O)c4cc(O)cc(O)c4-c4cc3ccc4O)[C@H](O)c3ccc(c(Cl)c3)Oc3cc2cc(c3O[C@@H]2O[C@H](CO)[C@@H](O)[C@H](O)[C@H]2O[C@H]2C[C@](C)(N)[C@H](O)[C@H](C)O2)Oc2ccc(cc2Cl)[C@H]1O` [Va, vancomycin], which Antibiotic resistance profile [4] is on record?
A: R

Q: And the Antibiotic resistance profile [5]?
A: R

Q: And the Antibiotic resistance profile [6]?
A: S

Q: For cocamidopropyl betaine, which MBC [7] is on record?
A: 50% of stock solution

Q: And the MIC [7]?
A: 25% of stock solution

Q: And the MBC [8]?
A: 0.3% of stock solution

Q: What about the MIC [8] of the same compound?
A: 0.1% of stock solution

Q: And the MBC [9]?
A: 0.3% of stock solution

Q: What about the MIC [9] of the same compound?
A: 0.1% of stock solution

Q: What about the MBC [10] of the same compound?
A: 50% of stock solution

Q: And the MIC [10]?
A: 25% of stock solution

Q: What about the MBC [11] of the same compound?
A: 50% of stock solution

Q: What about the MIC [11] of the same compound?
A: 25% of stock solution

Q: And the MBC [12]?
A: 0.1% of stock solution

Q: What about the MIC [12] of the same compound?
A: 0.1% of stock solution

Q: What does the source list for gentamicin [Gm]?
A: Antibiotic resistance profile [4]: R; Antibiotic resistance profile [5]: I; Antibiotic resistance profile [6]: S

Q: How did the Antibiotic resistance profile [4] turn out when neomycin was run?
A: R

Q: What about the Antibiotic resistance profile [5] of the same compound?
A: R

Q: What about the Antibiotic resistance profile [6] of the same compound?
A: R

Q: What about the “MIC, antibiotic Individually Administered” value ([1]; antibiotic alone) of the same compound?
A: 3.13 mg/mL

Q: And the “MIC, antibiotic Individually Administered” value ([2]; antibiotic alone)?
A: 1.0 mg/mL

Q: What about the “MIC, antibiotic Individually Administered” value ([3]; antibiotic alone) of the same compound?
A: 3.13 mg/mL

Q: And the “MBC of Neomycin, Individually Administered” value ([13]; En. faecalis, in 50 mM Tris)?
A: 25.0 mg/mL

Q: And the “MBC of Neomycin, Co-administered” value ([13]; En. faecalis, with EDTA, in 50 mM Tris)?
A: 6.25 mg/mL

Q: And the “Decrease of MBC value when EDTA and neomycin combined compared to individually administered” value ([13]; Ent. faecalis)?
A: 75%

Q: And the “MBC of Neomycin, Individually Administered” value [14]?
A: 5.0 mg/mL

Q: And the “MBC of Neomycin, Co-administered” value ([14]; with EDTA)?
A: 0.04 mg/mL

Q: What about the “Decrease of MBC value when EDTA and neomycin combined compared to individually administered” value [15] of the same compound?
A: about 50% and 50%

Q: And the “MBC of Neomycin, Individually Administered” value ([15]; in 50 mM Tris)?
A: 3.13 mg/mL

Q: And the “MBC of Neomycin, Co-administered” value ([15]; with EDTA, in 50 mM Tris)?
A: 1.56 mg/mL
